The record followed here is US12304910B2, “Janus kinase (JAK) family inhibitor, preparation of same, and applications thereof” (JIANGSU VCARE PHARMATECH CO., LTD., priority 2019, dated 2025).

One data set concerns the target JAK1 (Homo sapiens, UniProt P23458). Put plainly: Kinase activity test (γ33P-ATP isotopic method), JAK1. It counts as biochemical. The conditions noted are these: for IC50: 33P-ATP 10 μM, 2 h reaction; for activity in inhibiting the JAK1 kinase compared with Tofacitinib (in words): conclusion from Table 1. The method, then: (§1) This experiment adopted a γ^33p-ATP isotopic test method to test the inhibitory effect of a compound on kinases JAK1, JAK2, JAK3 and TYK2, and obtained a half inhibitory concentration IC50 of the compound for inhibiting activity of the kinase.
(§2) 20 mM 4-hydroxyethylpiperazine ethanesulfonic acid buffer (Hepes, pH 7.5), 10 mM magnesium chloride (MgCl2), 1 mM ethylene glycol diethyl ether diamine tetraacetic acid (EGTA), 0.02% dodecyl polyethylene glycol ether (Brij35), 0.02 mg/ml bovine serum albumin (BSA), 0.1 mM sodium vanadate (Na3VO4), 2 mM dithiothreitol (DTT), and 1% dimethylsulfoxide (DMSO).
(§3) A compound is dissolved with 100% DMSO to a specific concentration, and then subjected to gradient dilution by an automatic sampling device to obtain the samples to be tested with different concentrations (DMSO solutions).
(§4) 3.1 diluting the reaction substrate with the basic reaction buffer;
(§5) 3.2 adding the kinase into the substrate solution, and gently mixing well;
(§6) 3.3 adding, by the automatic sampling system, the 100% DMSO diluted compounds with different concentrations into the kinase solution, and incubating for 20 min at room temperature; and
(§7) 3.4 adding ^33p-ATP (10 μM, 10 μCi/μl) at room temperature to initiate the kinase reaction for a duration of 2 h.
(§8) The unreacted ATP and the reaction-generated […] in the reaction were removed by an ion exchange filtering system, and then the amount of radioactivity of ^33p isotope in the substrate was detected.
(§9) According to the amount of radioactivity, the kinase activities in the systems added with the inhibitors of different concentrations were calculated, to obtain the inhibitors' effects of the compounds of different concentrations on the kinase activity; and fitting was performed with graphpad prism to obtain the inhibitory IC50 values of the compounds.

The next data set has as its target JAK2 (Homo sapiens, UniProt O60674). In words: Kinase activity test (γ33P-ATP isotopic method), JAK2. It counts as biochemical. The note with it: 33P-ATP 10 μM, 2 h reaction. As to the method:
as §1, §2, §3, §4, §5, §6, §7, §8, §9

The target of another data set is T1, JAK3 (Homo sapiens, UniProt P52333).
T1 sequence (P52333 1-1124): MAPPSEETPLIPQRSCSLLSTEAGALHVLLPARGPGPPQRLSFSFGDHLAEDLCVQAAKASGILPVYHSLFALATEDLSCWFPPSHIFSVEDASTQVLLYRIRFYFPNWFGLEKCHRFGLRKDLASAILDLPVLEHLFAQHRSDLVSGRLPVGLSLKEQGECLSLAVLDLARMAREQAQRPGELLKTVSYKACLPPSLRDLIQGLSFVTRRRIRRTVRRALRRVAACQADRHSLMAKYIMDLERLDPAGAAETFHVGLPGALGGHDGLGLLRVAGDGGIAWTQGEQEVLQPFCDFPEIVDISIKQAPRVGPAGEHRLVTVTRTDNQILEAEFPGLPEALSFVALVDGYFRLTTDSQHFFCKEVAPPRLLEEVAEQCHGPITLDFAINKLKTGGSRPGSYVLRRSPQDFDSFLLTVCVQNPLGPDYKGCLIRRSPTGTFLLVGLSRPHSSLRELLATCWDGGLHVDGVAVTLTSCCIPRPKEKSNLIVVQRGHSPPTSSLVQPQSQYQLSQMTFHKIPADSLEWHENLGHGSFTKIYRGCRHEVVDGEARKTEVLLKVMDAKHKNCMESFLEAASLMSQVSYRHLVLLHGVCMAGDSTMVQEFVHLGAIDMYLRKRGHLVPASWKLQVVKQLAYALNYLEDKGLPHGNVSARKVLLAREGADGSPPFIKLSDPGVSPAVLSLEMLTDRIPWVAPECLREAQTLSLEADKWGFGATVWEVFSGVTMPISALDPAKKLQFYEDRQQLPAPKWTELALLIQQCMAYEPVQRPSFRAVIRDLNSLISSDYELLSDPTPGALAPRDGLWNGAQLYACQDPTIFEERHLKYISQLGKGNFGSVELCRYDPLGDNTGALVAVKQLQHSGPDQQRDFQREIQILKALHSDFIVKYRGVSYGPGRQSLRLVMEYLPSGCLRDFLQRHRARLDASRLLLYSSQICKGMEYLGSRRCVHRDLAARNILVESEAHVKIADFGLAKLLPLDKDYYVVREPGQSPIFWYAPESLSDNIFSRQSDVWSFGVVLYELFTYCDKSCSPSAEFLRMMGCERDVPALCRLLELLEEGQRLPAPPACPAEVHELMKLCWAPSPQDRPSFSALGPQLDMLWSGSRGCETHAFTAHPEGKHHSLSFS
Put plainly: Kinase activity test (γ33P-ATP isotopic method), JAK3. It counts as biochemical. The conditions noted are these: 33P-ATP 10 μM, 2 h reaction. The method, then: as §1, §2, §3, §4, §5, §6, §7, §8, §9

The next data set deals with TYK2 (Homo sapiens, UniProt P29597). Put plainly: Kinase activity test (γ33P-ATP isotopic method), TYK2. It counts as biochemical. The conditions noted are these: 33P-ATP 10 μM, 2 h reaction. The method, then:
as §1, §2, §3, §4, §5, §6, §7, §8, §9

Data set [1] is described as follows: Liver microsome test (metabolic stability). The conditions noted are these: for Remaining % (60 min) / half-life at 1 μmol/L / microsomal CLint at 1 μmol/L: human liver microsomes 0.5 mg/mL protein, compound 1 μmol/L, 37° C.; for half-life at 1 μmol/L / microsomal CLint at 1 μmol/L: pH 7.4; for microsomal CLint at 1 μmol/L: read-out: Clint (μL/min/mg protein). The data set is classed as in vitro ADME, human. As to the method:
In an incubation system with a total volume of 250 μL, an incubation solution of hum an liver microsomes containing 0.5 mg/mL protein was formulated with a 50 mmol/L PBS buffer (pH=7.4). Before the start of incubation, 2.5 μL of a 100 μmol/L compound to be tested was mixed with 197.5 μL of the above incubation buffer, pre-incubated for 5 min in a 37° C. water bath, and then added with 50 μL of a reducing coenzyme II solution (5 mmol/L) that was likewise pre-incubated for 5 min to start a reaction (in the reaction system, the protein content of liver microsomes from various species was 0.5 g/L, and the final concentration of the compound to be tested was 1 μmol/L), incubated in a 37° C. water bath with shaking, and taken out at 0, 5, 15, 30, and 60 min respectively. 600 μL of a methanol solution of mixed positive and negative internal standards with internal standards Terfenadine (positive ion internal standard, 25 ng/mL) and Tolbutamide (negative ion internal standard, 50 ng/mL) was immediately added to terminate the reaction. The incubation solution after termination was shaken for 2 min and centrifuged (4° C., 16000 r/min) for 10 min, and the supernatant was taken for LC-MS/MS detection to quantitatively analyze the remaining amount of the parent drug. (DMSO=0.1%).
The concentration of the compound at 0 mi incubation was regarded as 100%, and the concentrations at other incubation time points were converted into the remaining percentages. The natural logarithm of the remaining percentage at each time point was linearly regressed against the incubation time, and the slope k was calculated. According to the formula T1/2=−0.693/k, the in vitro half-life was calculated. Clearance in liver microsomes (CLint (μL/min/mg protein)=Ln (2)*1000/T1/2 (min/Protein Conc (mg/ml)).
(In general: Microsomes from liver hold many membrane-bound enzymes, among them those of drug oxidation.)

The test system of data set [2] is DSS induced mouse ulcerative colitis model. In words: Efficacy test in DSS induced mouse ulcerative colitis model. It counts as in vivo. The note with it: for DAI score on day 8: once a day, mouse DSS model, DAI range 0-4. The source says: Mice of 6-7 weeks old were randomly grouped, 6 mice per group. Purified water was provided ad libitum to the mice in a negative control group, and a 2% solution of dextran sulfate sodium (DSS) was provided ad libitum to the mice in other groups, for 7 consecutive days. During the modeling, medication was given according to the groups, once a day for 7 days (the treatment groups and the mouse numbers can be adjusted according to the specific situation). Within 8-10 days later, the DSS-containing water was replaced with purified water, provided ad libitum to the mice. The normal administration continued for 3 days.
From the first day of administration, the general conditions such as metal state, eating, drinking and activities of the mice were respectively observed every day, the mice were weighed every day, and the animal stools were collected, evaluated for their traits and subjected to the occult blood test. The disease activity index (DAI) of experimental animals within 1-10 days were comprehensively assessed.
Scoring was performed according to the above-mentioned standards. The disease activity index (DAI) of each mouse was obtained by summing the scores of weight loss, stool trait and occult blood condition, to evaluate the disease activity. DAI=(score of weight loss+score of stool trait+score of bloody stool)/3, ranging from 0-4.
The experimental data was processed statistically, and the data are all expressed as mean±SD or mean±SME. The SPSS13.0 software was used for statistical analysis, and the differences among the groups were compared with t test (equal variance) or t′ test (unequal variance).

JAK2, sequence (O60674 whole entry): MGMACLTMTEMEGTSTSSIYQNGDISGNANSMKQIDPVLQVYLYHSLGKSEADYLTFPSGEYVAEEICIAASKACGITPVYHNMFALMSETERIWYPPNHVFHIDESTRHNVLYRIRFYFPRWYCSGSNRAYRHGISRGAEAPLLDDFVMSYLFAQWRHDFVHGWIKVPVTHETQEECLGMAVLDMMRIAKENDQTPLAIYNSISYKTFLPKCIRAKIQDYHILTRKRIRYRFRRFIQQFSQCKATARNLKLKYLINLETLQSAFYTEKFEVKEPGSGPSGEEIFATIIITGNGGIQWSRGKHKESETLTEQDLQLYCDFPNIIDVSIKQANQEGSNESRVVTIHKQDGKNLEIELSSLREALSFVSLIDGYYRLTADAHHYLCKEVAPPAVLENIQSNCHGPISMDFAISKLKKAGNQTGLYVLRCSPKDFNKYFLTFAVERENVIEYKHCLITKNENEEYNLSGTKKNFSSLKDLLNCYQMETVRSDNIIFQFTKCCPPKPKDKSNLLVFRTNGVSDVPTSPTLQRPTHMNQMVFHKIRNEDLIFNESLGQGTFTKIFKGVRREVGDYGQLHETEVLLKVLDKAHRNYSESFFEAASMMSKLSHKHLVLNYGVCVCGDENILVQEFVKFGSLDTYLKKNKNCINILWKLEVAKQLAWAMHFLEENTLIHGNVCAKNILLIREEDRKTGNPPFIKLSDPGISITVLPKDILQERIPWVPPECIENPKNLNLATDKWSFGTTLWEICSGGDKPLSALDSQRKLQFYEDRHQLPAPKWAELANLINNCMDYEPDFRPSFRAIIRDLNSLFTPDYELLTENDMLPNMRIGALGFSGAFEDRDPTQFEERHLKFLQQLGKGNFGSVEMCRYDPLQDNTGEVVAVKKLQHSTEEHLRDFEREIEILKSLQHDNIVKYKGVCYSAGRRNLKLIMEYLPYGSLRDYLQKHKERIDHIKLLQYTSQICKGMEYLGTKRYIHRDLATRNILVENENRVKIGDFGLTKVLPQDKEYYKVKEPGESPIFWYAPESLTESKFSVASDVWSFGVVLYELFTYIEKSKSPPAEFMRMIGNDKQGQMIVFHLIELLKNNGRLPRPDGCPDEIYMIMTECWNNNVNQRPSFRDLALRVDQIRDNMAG
TYK2, sequence (P29597 whole entry): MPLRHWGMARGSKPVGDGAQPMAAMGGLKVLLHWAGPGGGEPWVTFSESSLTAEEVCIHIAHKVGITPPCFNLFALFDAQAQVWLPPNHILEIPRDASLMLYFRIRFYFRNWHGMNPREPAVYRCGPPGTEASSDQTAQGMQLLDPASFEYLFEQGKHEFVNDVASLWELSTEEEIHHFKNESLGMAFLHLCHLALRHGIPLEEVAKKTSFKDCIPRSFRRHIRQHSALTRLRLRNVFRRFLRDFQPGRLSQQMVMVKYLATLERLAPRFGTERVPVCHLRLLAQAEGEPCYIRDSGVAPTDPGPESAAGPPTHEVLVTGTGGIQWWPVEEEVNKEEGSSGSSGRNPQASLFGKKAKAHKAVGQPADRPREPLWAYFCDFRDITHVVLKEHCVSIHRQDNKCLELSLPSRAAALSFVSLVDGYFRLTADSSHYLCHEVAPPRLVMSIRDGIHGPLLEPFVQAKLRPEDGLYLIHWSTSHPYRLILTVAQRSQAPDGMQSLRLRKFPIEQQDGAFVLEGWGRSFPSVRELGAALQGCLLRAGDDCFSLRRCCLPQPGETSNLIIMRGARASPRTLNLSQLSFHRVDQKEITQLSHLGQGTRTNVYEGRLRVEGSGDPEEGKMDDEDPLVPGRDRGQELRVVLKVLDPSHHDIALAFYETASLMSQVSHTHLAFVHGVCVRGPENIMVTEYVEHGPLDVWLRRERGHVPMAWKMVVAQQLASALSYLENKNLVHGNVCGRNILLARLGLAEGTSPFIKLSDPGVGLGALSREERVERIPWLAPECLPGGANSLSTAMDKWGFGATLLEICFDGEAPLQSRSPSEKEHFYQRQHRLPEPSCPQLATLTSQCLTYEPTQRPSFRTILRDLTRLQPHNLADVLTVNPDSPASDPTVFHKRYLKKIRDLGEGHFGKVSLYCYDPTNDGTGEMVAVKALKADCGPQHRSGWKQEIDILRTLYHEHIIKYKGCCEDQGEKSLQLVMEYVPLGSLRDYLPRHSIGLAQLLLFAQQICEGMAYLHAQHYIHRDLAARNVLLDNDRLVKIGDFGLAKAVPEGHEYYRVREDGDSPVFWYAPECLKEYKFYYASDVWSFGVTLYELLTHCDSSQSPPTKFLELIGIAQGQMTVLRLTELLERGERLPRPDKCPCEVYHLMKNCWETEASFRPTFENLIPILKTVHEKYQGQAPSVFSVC
JAK1, sequence (P23458 whole entry): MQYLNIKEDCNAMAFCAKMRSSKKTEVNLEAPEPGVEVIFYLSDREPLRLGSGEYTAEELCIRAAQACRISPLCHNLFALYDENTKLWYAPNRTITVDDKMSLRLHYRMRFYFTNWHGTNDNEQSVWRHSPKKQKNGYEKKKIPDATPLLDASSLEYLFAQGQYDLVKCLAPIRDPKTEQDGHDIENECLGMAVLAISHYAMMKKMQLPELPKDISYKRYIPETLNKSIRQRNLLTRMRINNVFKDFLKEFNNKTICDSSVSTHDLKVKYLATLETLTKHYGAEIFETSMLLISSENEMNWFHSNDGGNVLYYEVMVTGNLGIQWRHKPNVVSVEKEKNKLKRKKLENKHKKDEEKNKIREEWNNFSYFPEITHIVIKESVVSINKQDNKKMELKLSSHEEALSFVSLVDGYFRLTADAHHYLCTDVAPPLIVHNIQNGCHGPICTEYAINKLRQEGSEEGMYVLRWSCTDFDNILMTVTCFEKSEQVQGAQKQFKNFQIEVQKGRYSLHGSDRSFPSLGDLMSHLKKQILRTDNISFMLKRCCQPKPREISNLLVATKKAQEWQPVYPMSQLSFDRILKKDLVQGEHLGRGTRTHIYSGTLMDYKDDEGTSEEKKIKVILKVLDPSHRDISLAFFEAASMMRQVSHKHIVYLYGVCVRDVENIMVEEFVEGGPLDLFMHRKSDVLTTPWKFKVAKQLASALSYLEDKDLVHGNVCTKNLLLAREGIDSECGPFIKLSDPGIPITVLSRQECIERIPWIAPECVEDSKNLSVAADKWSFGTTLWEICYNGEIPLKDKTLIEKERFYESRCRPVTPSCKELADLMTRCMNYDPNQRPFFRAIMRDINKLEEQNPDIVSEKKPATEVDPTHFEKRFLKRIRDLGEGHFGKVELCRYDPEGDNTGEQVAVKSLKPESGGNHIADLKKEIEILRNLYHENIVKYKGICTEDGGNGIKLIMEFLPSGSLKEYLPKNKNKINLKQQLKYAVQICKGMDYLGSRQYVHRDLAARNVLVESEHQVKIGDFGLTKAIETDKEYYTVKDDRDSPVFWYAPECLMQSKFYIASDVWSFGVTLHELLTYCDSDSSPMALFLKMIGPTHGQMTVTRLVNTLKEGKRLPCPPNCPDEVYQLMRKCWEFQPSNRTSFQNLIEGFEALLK

As for `N#CCNC(=O)[C@H]1CCCN(Nc2c(C(N)=O)cnc3[nH]ccc23)C1` [Example 7], the half-maximal inhibitory concentration (IC50) (usually the concentration at which inhibition is half-maximal) on JAK1 was 0.39 nM; at JAK2 it was 1.32 nM; at JAK3, 0.71 nM; at TYK2, 1.98 nM. The “activity in inhibiting the JAK1 kinase compared with Tofacitinib (in words)” value at JAK1 was “higher activity in inhibiting the JAK1 kinase than the positive drug control Tofacitinib”.
Consider `NC(=O)c1cnc2[nH]ccc2c1NN1CCC[C@H](C(=O)NCC(F)(F)F)C1` [Example 1, (S)-4-(3-(2,2,2-trifluoroethylcarbamoyl)piperidine-1-amino)-1H-7-azaindole-5-carboxamide], for which the IC50 turned out to be 0.29 nM at JAK1, 2.26 nM at JAK2, 2.7 nM on JAK3 and 3.28 nM at TYK2. The “activity in inhibiting the JAK1 kinase compared with Tofacitinib (in words)” value on JAK1 is given as “higher activity in inhibiting the JAK1 kinase than the positive drug control Tofacitinib”. For the same compound, the “Remaining % (60 min)” value in data set [1] came to 59.0%. Besides, the “metabolic stability in liver microsomes (in words)” value in data set [1] (human liver microsomes, conclusion from Table 2) is “excellent metabolic activity in liver”. The half-life (in general, the time needed for the level to fall by half in the phase considered) at 1 μmol/L in data set [1] worked out at 1.36 h. Further, the microsomal CLint at 1 μmol/L in data set [1] turned out to be 17 µL/min/mg. Also, the “DAI score on day 8” value is on record as 2.8 in data set [2] (5 mg/kg group) and 2 in data set [2] (15 mg/kg group). Besides, in data set [2] (relatively low dose), the “effect on DSS induced enteritis in mice (in words)” value is listed as “significant effect in inhibiting the DSS induced enteritis in mice”.
In the case of `CC(C)(C)OC(=O)N1CC2CN(Nc3c(C(N)=O)cnc4[nH]ccc34)CC2C1` (stereo not shown) [Example 12], the half-maximal inhibitory concentration (IC50) at JAK1 was 1.1 nM; against JAK2, 16.7 nM; against JAK3, 5.97 nM; at TYK2, 19 nM.
`NC(=O)c1cnc2[nH]ccc2c1NN1CCC[C@@H](C(=O)NCC(F)(F)F)C1` [Example 3, (R)-4-(3-(2,2,2-trifluoroethylcarbamoyl)piperidine-1-amino)-1H-7-azaindole-5-carboxamide]: the IC50 came out at 0.41 nM against JAK1, 11.6 nM against JAK2, 8.69 nM on JAK3 and 9.93 nM at TYK2. Also, at JAK1, the “activity in inhibiting the JAK1 kinase compared with Tofacitinib (in words)” value is listed as “higher activity in inhibiting the JAK1 kinase than the positive drug control Tofacitinib”.
For `CCCNC(=O)[C@H]1CCCN(Nc2c(C(N)=O)cnc3[nH]ccc23)C1` [Example 5, (S)-4-(3-(n-propylcarbamoyl)piperidine-1-amino)-1H-7-azaindole-5-carboxamide], the IC50 against JAK1 came to 1.19 nM; against JAK2, 54.8 nM; against JAK3, 15.9 nM; against TYK2, 34.7 nM.
For `C[C@@H]1CCN(C(=O)CC#N)C[C@@H]1N(C)c1ncnc2[nH]ccc12` [Tofacitinib, reference compound], in data set [1], the “Remaining % (60 min)” value amounted to 80.7%, the half-life at 1 μmol/L amounted to 3.3 h and the microsomal CLint at 1 μmol/L stood at 7 µL/min/mg. Moreover, the “DAI score on day 8” value in data set [2] (5 mg/kg group) stood at 3.5.
